In the supplement of paper PMC11061612:

Legend:
Test in all cases: combination Emax (second highest fraction inhibited in the dose matrix, 72 h); higher = more inhibition; extreme values may be limits of the assay
[1] = test system: OCUB-M (Breast Carcinoma)
Outline: (§1)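 Cell lines in DMEM/F12 or RPMI with 10% FBS were plated in 1536-well plates, held 24 hours at 37°C, 5% CO2, then given two-drug dose matrices for 72 hours (DMSO typically 0.2%). Viability was read by CellTiter-Glo 2.0 luminescence and scaled as inhibition from 0 (vehicle wells) to 1 (blank wells). Combination Emax is the second-highest inhibition in the matrix; Bliss excess is observed combination effect minus expected EA + EB − EA·EB, EA and EB being single-agent effects.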

[2] = test system: NCI-H2405 (Lung Adenocarcinoma)
Outline: as §1

[3] = test system: H-EMC-SS (Chondrosarcoma)
Outline: as §1

[4] = test system: NCI-H2347 (Lung Adenocarcinoma)
Outline: as §1

[5] = test system: NCI-H1573 (Lung Adenocarcinoma)
Outline: as §1

[6] = test system: DG-75 (Burkitt's Lymphoma)
Outline: as §1

[7] = test system: EMC-BAC-2 (Non-Small Cell Lung Carcinoma)
Outline: as §1

[8] = test system: IMR-5 (Neuroblastoma)
Outline: as §1

[9] = test system: NCI-H513 (Other Solid Carcinomas)
Outline: as §1

[10] = test system: HuP-T3 (Pancreatic Carcinoma)
Outline: as §1

[11] = test system: U-87-MG (Glioblastoma)
Outline: as §1

[12] = test system: HSC-2 (Oral Cavity Carcinoma)
Outline: as §1

[13] = test system: BT-20 (Breast Carcinoma)
Outline: as §1

[14] = test system: KLE (Endometrial Carcinoma)
Outline: as §1

[15] = test system: SCC-3 (B-Cell Non-Hodgkin's Lymphoma)
Outline: as §1

[16] = test system: PFSK-1 (Other Solid Carcinomas)
Outline: as §1

[17] = test system: KU-19-19 (Bladder Carcinoma)
Outline: as §1

[18] = test system: KYSE-50 (Esophageal Squamous Cell Carcinoma)
Outline: as §1

[19] = test system: NB7 (Neuroblastoma)
Outline: as §1

[20] = test system: KP-2 (Pancreatic Carcinoma)
Outline: as §1

SMILES: COc1nnc2ccc(N3CCC(c4ccc(OCCN5CCN(C)C(=O)[C@H]5C)cc4)CC3)nn12 [AZD5153] + Cc1c2c(nn1C)CSCc1cc(n(C)n1)CSc1cc(c3ccccc3c1)OCCCc1c(C(=O)O)n(C)c3c-2c(Cl)ccc13 [AZD5991] (first compound max 1 µM, 7x7, partner max 1 µM)
- combination Emax [1]: 1
- combination Emax [2]: 0.36
- combination Emax [3]: 0.345
- combination Emax [4]: 0.39
- combination Emax [5]: 0.673
- combination Emax [6]: 0.876
- combination Emax [7]: 0.886
- combination Emax [8]: 1
- combination Emax [9]: 0.423
- combination Emax [10]: 0.534
- combination Emax [11]: 0.559
- combination Emax [12]: 0.963
- combination Emax [13]: 0.787
- combination Emax [14]: 0.668
- combination Emax [15]: 0.997
- combination Emax [16]: 0.982
- combination Emax [17]: 0.775
- combination Emax [18]: 0.713
- combination Emax [19]: 0.875
- combination Emax [20]: 0.427

SMILES: NC1(C(=O)N[C@@H](CCO)c2ccc(Cl)cc2)CCN(c2ncnc3[nH]ccc23)CC1 [Capivasertib] + CC(C)n1c(=O)n(C)c2cnc3cc(F)c(-c4ccc(OCCCN5CCCCC5)nc4)cc3c21 [AZD1390] (first compound max 10 µM, 7x7, partner max 0.3 µM)
- combination Emax [1]: 1
- combination Emax [2]: 0.274
- combination Emax [3]: 0.432
- combination Emax [4]: 0.196
- combination Emax [5]: 0.195
- combination Emax [6]: 0.38
- combination Emax [7]: 0.462
- combination Emax [8]: 0.161
- combination Emax [9]: 0.171
- combination Emax [10]: 0.163
- combination Emax [11]: 0.578
- combination Emax [12]: 0.447
- combination Emax [13]: 0.733
- combination Emax [14]: 0.43
- combination Emax [15]: 0.216
- combination Emax [16]: 0.462
- combination Emax [17]: 0.266
- combination Emax [18]: 0.14
- combination Emax [19]: 0.736
- combination Emax [20]: 0.102

SMILES: CC(=O)c1c(C)c2cnc(Nc3ccc(N4CCNCC4)cn3)nc2n(C2CCCC2)c1=O [Palbociclib] + CN(CC[C@H](CSC1=CC=CC=C1)NC2=C(C=C(C=C2)S(=O)(=O)NC(=O)C3=CC=C(C=C3)N4CCC(CC4)[C@H](C5=CC=CC=C5C6=CC=C(C=C6)Cl)O)S(=O)(=O)C(F)(F)F)CCO [AZD4320] (first compound max 10 µM, 7x7, partner max 1 µM)
- combination Emax [2]: 0.351
- combination Emax [4]: 0.458
- combination Emax [5]: 0.306
- combination Emax [6]: 0.735
- combination Emax [7]: 0.366
- combination Emax [8]: 0.949
- combination Emax [9]: 0.205
- combination Emax [10]: 0.274
- combination Emax [11]: 0.312
- combination Emax [13]: 0.546
- combination Emax [14]: 0.355
- combination Emax [15]: 0.392
- combination Emax [16]: 0.51
- combination Emax [17]: 0.54
- combination Emax [18]: 0.37
- combination Emax [20]: 0.743

SMILES: CN(CCO)CC[C@H](CSc1ccccc1)Nc1ccc(S(=O)(=O)NC(=O)c2ccc(N3CCC([C@@H](O)c4ccccc4-c4ccc(Cl)cc4)CC3)cc2)cc1S(=O)(=O)C(F)(F)F [AZD4320] + C=CCn1c(=O)c2cnc(Nc3ccc(N4CCN(C)CC4)cc3)nc2n1-c1cccc(C(C)(C)O)n1 [AZD1775] (first compound max 1 µM, partner max 1 µM)
- combination Emax [1]: 0.487
- combination Emax [2]: 0.193
- combination Emax [3]: 0.402
- combination Emax [4]: 0.571
- combination Emax [5]: 0.291
- combination Emax [6]: 0.82
- combination Emax [7]: 0.425
- combination Emax [8]: 0.983
- combination Emax [9]: 0.707
- combination Emax [10]: 0.412
- combination Emax [11]: 0.187
- combination Emax [12]: 0.639
- combination Emax [13]: 0.787
- combination Emax [14]: 0.573
- combination Emax [15]: 0.779
- combination Emax [16]: 0.742
- combination Emax [17]: 0.964
- combination Emax [18]: 0.476
- combination Emax [19]: 0.689
- combination Emax [20]: 0.912

SMILES: COc1nnc2ccc(N3CCC(c4ccc(OCCN5CCN(C)C(=O)[C@H]5C)cc4)CC3)nn12 [AZD5153] + CN(CC[C@H](CSC1=CC=CC=C1)NC2=C(C=C(C=C2)S(=O)(=O)NC(=O)C3=CC=C(C=C3)N4CCC(CC4)[C@H](C5=CC=CC=C5C6=CC=C(C=C6)Cl)O)S(=O)(=O)C(F)(F)F)CCO [AZD4320] (first compound max 1 µM, 7x7, partner max 1 µM)
- combination Emax [2]: 0.443
- combination Emax [4]: 0.518
- combination Emax [5]: 0.356
- combination Emax [6]: 0.881
- combination Emax [7]: 0.661
- combination Emax [8]: 0.984
- combination Emax [9]: 0.409
- combination Emax [10]: 0.512
- combination Emax [11]: 0.625
- combination Emax [13]: 0.293
- combination Emax [14]: 0.792
- combination Emax [15]: 0.93
- combination Emax [16]: 0.558
- combination Emax [17]: 0.755
- combination Emax [18]: 0.732
- combination Emax [20]: 0.945

SMILES: C[C@@H](c1ccc2nccn2c1)n1nnc2ncc(-c3cnn(C)c3)nc21 [Savolitinib] + CN(CC[C@H](CSC1=CC=CC=C1)NC2=C(C=C(C=C2)S(=O)(=O)NC(=O)C3=CC=C(C=C3)N4CCC(CC4)[C@H](C5=CC=CC=C5C6=CC=C(C=C6)Cl)O)S(=O)(=O)C(F)(F)F)CCO [AZD4320] (first compound max 1 µM, 7x7, partner max 1 µM)
- combination Emax [2]: 0.271
- combination Emax [4]: 0.413
- combination Emax [5]: 0.218
- combination Emax [6]: 0.057
- combination Emax [7]: 0.216
- combination Emax [8]: 0.481
- combination Emax [9]: 0.113
- combination Emax [10]: 0.203
- combination Emax [11]: 0.259
- combination Emax [13]: 0.418
- combination Emax [14]: 0.216
- combination Emax [15]: 0.0987
- combination Emax [16]: 0.329
- combination Emax [17]: 0.194
- combination Emax [18]: 0.188
- combination Emax [20]: 0.855
